For one assay, the target named is LSD1 (Homo sapiens, UniProt O60341). Put plainly: LSD1 10-dose IC50 fluorescence coupling enzyme assay (HRP/Amplex Red, resorufin). It is filed as biochemical. As to conditions: 10 M histone H3(1-21)K4me2 peptide substrate; 3-fold serial dilution in duplicate starting at 100 μM. The protocol: Compounds were tested in a 10-dose IC50 mode fluorescence coupling enzyme assay with 3-fold serial dilution in duplicate starting at 100 μM. The production of FAD-dependent H2O2 as a result of demethylase activity of LSD1 on […] histone H3(1-21)K4me2 peptide substrate was measured by coupling with HRP and Amplex Red to yield resorufin (fluorescence measured at Ex/Em=535/590 nm on EnVision, Perkin Elmer).

For the next assay, the system named is MV4;11 cells. Put plainly: Cell Titer-Glo Luminescent Cell Viability Assay, cell growth inhibition against MV4;11 cells. It is filed as cell-based. The following applies: Homo sapiens. In a few lines: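 MV4;11 cells seeded at 3750/well, exposed to a 10-point 4-fold dilution series (0–50 μM); on Day 5 cells were split into fresh compound and media and grown to Day 10. Viability by CellTiter-Glo ATP luminescence at Day 5 and Day 10; IC50 from dose curves.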

Setting [1] is: MV4-11, 120 h, MV4;11 cells, Day 5, 10-point dose curve 0 to 50 μM, read-out: Cell Titer Glo IC50 (5 d).
The mark [2] stands for this setting: MV4-11, MV4;11 cells, Day 10 (re-seeded at Day 5 with fresh compound), 10-point dose curve 0 to 50 μM, read-out: Cell Titer Glo IC50 (10 d).

SMILES strings stand for the structures. Like-named read-outs stand apart in the source and are kept apart here.

Broadly, the IC50 is the concentration that inhibits the measured activity by half. For the molecule `COc1ccc(-n2nc(C(=O)N3CCCC(N)C3)cc2-c2ccc(C#N)c(F)c2)cc1F` (centres unmarked) [Example 35, 4-(3-(3-Aminopiperidine-1-carbonyl)-1-(3-fluoro-4-methoxyphenyl)-1H-pyrazol-5-yl)-2-fluorobenzonitrile], the IC50 against LSD1 and in the assay on MV4;11 cells (setting [1]) was < 500 nM in each case.
`COP(=O)(OC)OCCCOC1CCN(c2ccc(-n3nc(C(=O)N4CCC[C@@H](N)C4)cc3-c3ccc(C#N)c(F)c3)cc2)CC1` [Example 70, (R)-3-((1-(4-(3-(3-aminopiperidine-1-carbonyl)-5-(4-cyano-3-fluorophenyl)-1H-pyrazol-1-yl)phenyl)piperidin-4-yl)oxy)propyl dimethyl phosphate 2,2,2-trifluoroacetate]: the IC50 was < 500 nM against LSD1 and < 500 nM in the assay with MV4;11 cells (MV4;11 cells, Day 10 (re-seeded at Day 5 with fresh compound), 10-point dose curve 0 to 50 μM, read-out: Cell Titer Glo IC50 (10 d)).
`COc1ccc(-n2nc(C(=O)N[C@@H]3CCC[C@@H](N)C3)cc2-c2ccc(C#N)c(F)c2)cc1` [Example 23, N-((1R,3R)-3-aminocyclohexyl)-5-(4-cyano-3-fluorophenyl)-1-(4-methoxyphenyl)-1H-pyrazole-3-carboxamide 2,2,2-trifluoroacetate]: the IC50 against LSD1 and in the assay with MV4;11 cells (setting [1]) was 1000 to 10000 nM in each case.
Consider `Cc1cc(CCn2nc(C(=O)N3CCC[C@@H](N)C3)cc2-c2ccc(C#N)c(F)c2)on1` [Example 38, (R)-4-(3-(3-aminopiperidine-1-carbonyl)-1-(2-(3-methylisoxazol-5-yl)ethyl)-1H-pyrazol-5-yl)-2-fluorobenzonitrile], for which the concentration for half-maximal inhibition (IC50) against LSD1 is > 10000 nM; with MV4;11 cells (setting [1]), 1000 to 10000 nM.
On to `COc1ccc(-n2cc(C(=O)N3CCC(N)CC3)c(-c3ccc(C#N)cc3)n2)cc1` [Example 86, 4-(4-(4-aminopiperidine-1-carbonyl)-1-(4-methoxyphenyl)-1H-pyrazol-3-yl)benzonitrile], for which the half-maximal inhibitory concentration (IC50) against LSD1 and in the assay on MV4;11 cells (setting [1]) was > 10000 nM in each case.
In the case of `COc1ccc(-n2cc(C(=O)N3CCCC(N)C3)c(-c3ccc(C#N)cc3)n2)cc1` (centres unmarked) [Example 87, 4-(4-(3-aminopiperidine-1-carbonyl)-1-(4-methoxyphenyl)-1H-pyrazol-3-yl)benzonitrile], the concentration for half-maximal inhibition (IC50) against LSD1 and in the assay with MV4;11 cells (setting [1]) was > 10000 nM each time.
Regarding `COc1ccc(-n2nc(C(=O)N3CCC[C@@H](N)C3)cc2-c2ccc(C#N)c(F)c2)cc1F` [Example 36, (R)-4-(3-(3-aminopiperidine-1-carbonyl)-1-(3-fluoro-4-methoxyphenyl)-1H-pyrazol-5-yl)-2-fluorobenzonitrile], the IC50 against LSD1 and in the assay on MV4;11 cells (setting [1]) was < 500 nM in each case.
For the molecule `N#Cc1ccc(-c2cc(C(=O)N3CCC[C@@H](N)C3)nn2-c2ccc(-c3cnc4c(c3)OCCO4)cc2)cc1F` [Example 84, (R)-4-(3-(3-aminopiperidine-1-carbonyl)-1-(4-(2,3-dihydro-[1,4]dioxino[2,3-b]pyridin-7-yl)phenyl)-1H-pyrazol-5-yl)-2-fluorobenzonitrile 2,2,2-trifluoroacetate], the half-maximal inhibitory concentration (IC50) against LSD1 and in the assay with MV4;11 cells (setting [2]) was < 500 nM in each case.
For `COc1ccc(-n2nc(NC(=O)C3CCNC3)cc2-c2ccc(C#N)c(F)c2)cc1` (centres unmarked) [Example 93, N-(5-(4-cyano-3-fluorophenyl)-1-(4-methoxyphenyl)-1H-pyrazol-3-yl)pyrrolidine-3-carboxamide 2,2,2-trifluoroacetate], the IC50 against LSD1 was < 500 nM; in the assay with MV4;11 cells (setting [1]), 1000 to 10000 nM.
Turning to `Cn1cc(-c2ccc(-n3nc(C(=O)N4CCC[C@H](N)C4)cc3-c3ccc(C#N)c(F)c3)cc2)cn1` [Example 65, (S)-4-(3-(3-aminopiperidine-1-carbonyl)-1-(4-(1-methyl-1H-pyrazol-4-yl)phenyl)-1H-pyrazol-5-yl)-2-fluorobenzonitrile 2,2,2-trifluoroacetate], the IC50 was < 500 nM on LSD1, 500 to 1000 nM with MV4;11 cells (setting [1]) and < 500 nM with MV4;11 cells (setting [2]).
`Cn1cc2cc(-n3nc(-c4ccc(C#N)c(F)c4)cc3C(=O)N3CCCC(N)C3)ccc2n1` (centres unmarked) [Example 41, 4-(5-(3-Aminopiperidine-1-carbonyl)-1-(2-methyl-2H-indazol-5-yl)-1H-pyrazol-3-yl)-2-fluorobenzonitrile]: the half-inhibitory concentration (IC50) was < 500 nM on LSD1 and 1000 to 10000 nM in the assay with MV4;11 cells (setting [1]).
As to `Cc1ccc(-n2nc(C(=O)N3CCCC(N)C3)cc2-c2ccc(C#N)c(F)c2)cc1` (centres unmarked) [Example 6, 4-(3-(3-Aminopiperidine-1-carbonyl)-1-(p-tolyl)-1H-pyrazol-5-yl)-2-fluorobenzonitrile], the IC50 at LSD1 and in the assay on MV4;11 cells (setting [1]) was < 500 nM throughout.
As to `Cc1ccc(-n2nc(C(=O)N3CCC(CN)CC3)cc2-c2ccc(C#N)c(F)c2)cc1` [Example 8, 4-(3-(4-(Aminomethyl)piperidine-1-carbonyl)-1-(p-tolyl)-1H-pyrazol-5-yl)-2-fluorobenzonitrile], the concentration for half-maximal inhibition (IC50) was < 500 nM on LSD1 and > 10000 nM in the assay on MV4;11 cells (setting [1]).
Regarding `N#Cc1ccc(-c2cc(C(=O)N3CCC[C@@H](N)C3)nn2-c2ccc(N3CCC(OCCO)CC3)cc2)cc1F` [Example 45, (R)-4-(3-(3-aminopiperidine-1-carbonyl)-1-(4-(4-(2-hydroxyethoxy)piperidin-1-yl)phenyl)-1H-pyrazol-5-yl)-2-fluorobenzonitrile], the IC50 at LSD1 and with MV4;11 cells (setting [2]) was < 500 nM each time.

Values taken from patent US20260085082A1, “KDM1A INHIBITORS FOR THE TREATMENT OF DISEASE” (Imago Biosciences, Inc., priority 2022, published 2026).
